The test system of the assay is NCI-H1975 (EGFR-L858R-T790M) cells. Kind of assay: Inhibitory activity on proliferation of NCI-H1975 (EGFR-L858R-T790M) cells (CTG, 72 h). It is filed as cell-based. The following applies: Homo sapiens. The method in brief:
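IC50 values come from S-shaped dose-survival fits of CTG signal expressed as % of vehicle. Compound exposure lasted 72 h at 37 °C with 0.1% DMSO; seeding was 3000 A431 cells/well in DMEM+10% FBS and 1000 NCI-H1975 cells/well in RPMI1640+10% FBS.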

Setting [1] is: read-out: IC50 (value in brackets).

Like-named read-outs stand apart in the source and are kept apart here. Some results are limits rather than exact numbers.

Regarding `COc1cc(N2CCN(CC3CCN(c4ccc(C(=O)NC5CCC(=O)NC5=O)nc4)CC3)CC2)c(-c2cnn(C)c2)cc1Nc1ncc(Br)c(Nc2ccc(-c3ccccc3)cc2P(C)(C)=O)n1` (stereo not drawn) [Compound 123, 5-(4-((4-(4-((5-bromo-4-((3-(dimethylphosphoryl)-[1,1′-biphenyl]-4-yl)amino)pyrimidin-2-yl)amino)-5-methoxy-2-(1-methyl-1H-pyrazol-4-yl)phenyl)piperazin-1-yl)methyl)piperidin-1-yl)-N-(2,6-dioxopiperidin-3-yl)picolinamide], the half-inhibitory concentration (IC50) runs as follows: (read-out: IC50 (class symbol)) < 100 nM; under setting [1], 51 nM. Consider `COc1cc(N2CCC3(CCN(CC4CCN(c5ccc6c(c5)C(=O)N(C5CCC(=O)NC5=O)C6=O)CC4)CC3)CC2)c(C2CC2)cc1Nc1ncc(Br)c(Nc2ccc3nccnc3c2P(C)(C)=O)n1` (stereo not drawn) [Compound 3, 5-(4-((9-(4-((5-bromo-4-((5-(dimethylphosphoryl)quinoxalin-6-yl)amino)pyrimidin-2-yl)amino)-2-cyclopropyl-5-methoxyphenyl)-3,9-diazaspiro[5.5]undecan-3-yl)methyl)piperidin-1-yl)-2-(2,6-dioxopiperidin-3-yl)isoindoline-1,3-dione], for which the 50% inhibitory concentration (IC50) was < 100 nM (read-out: IC50 (class symbol)) and 75 nM under setting [1]. Turning to `COc1cc(N2CCC(N3CCC4(CCCN(c5ccc6c(c5)C(=O)N(C5CCC(=O)NC5=O)C6=O)C4)CC3)CC2)c(-c2cnn(C)c2)cc1Nc1ncc(Br)c(Nc2ccc3nccnc3c2P(C)(C)=O)n1` (stereo not drawn) [Compound 32, 5-(9-(1-(4-((5-bromo-4-((5-(dimethylphosphoryl)quinoxalin-6-yl)amino)pyrimidin-2-yl)amino)-5-methoxy-2-(1-methyl-1H-pyrazol-4-yl)phenyl)piperidin-4-yl)-2,9-diazaspiro[5.5]undecan-2-yl)-2-(2,6-dioxopiperidin-3-yl)isoindoline-1,3-dione], the IC50 is, setting by setting: (read-out: IC50 (class symbol)) < 100 nM; under setting [1], 10 nM. As to `COc1cc(N2CCC(N3CCC(CN4CCN(c5ccc6c(c5)C(=O)N(C5CCC(=O)NC5=O)C6=O)CC4)CC3)CC2)c(-c2cnn(C)c2)cc1Nc1ncc(Br)c(Nc2ccc(-c3ccccc3)cc2P(C)(C)=O)n1` (stereo not drawn) [Compound 43, 5-(4-((1′-(4-((5-bromo-4-((3-(dimethylphosphoryl)-[1,1′-biphenyl]-4-yl)amino)pyrimidin-2-yl)amino)-5-methoxy-2-(1-methyl-1H-pyrazol-4-yl)phenyl)-[1,4′-bipiperidin]-4-yl)methyl)piperazin-1-yl)-2-(2,6-dioxopiperidin-3-yl)isoindoline-1,3-dione], the IC50 by setting is: (read-out: IC50 (class symbol)) < 100 nM; under setting [1], 80 nM. The like results for `COc1cc(N2CCC3(CCN(Cc4cccc(NC5CCC(=O)NC5=O)c4)CC3)CC2)c(-c2cnn(C)c2)cc1Nc1ncc(Br)c(Nc2ccc(-c3ccccc3)cc2P(C)(C)=O)n1` (stereo not drawn) [Compound 129, 3-((3-((9-(4-((5-bromo-4-((3-(dimethylphosphoryl)-[1,1′-biphenyl]-4-yl)amino)pyrimidin-2-yl)amino)-5-methoxy-2-(1-methyl-1H-pyrazol-4-yl)phenyl)-3,9-diazaspiro[5.5]undecan-3-yl)methyl)phenyl)amino)piperidine-2,6-dione] were, in that order, 100 to 500 nM and 125 nM. The like results for `COc1cc(N2CCN(CC3CCN(c4ccc5c(c4)C(=O)N(C4CCC(=O)NC4=O)C5=O)CC3)CC2)c(-c2cnn(C)c2)cc1Nc1ncc(Cl)c(Nc2ccccc2P(C)(C)=O)n1` (stereo not drawn) [Compound 128, 5-(4-((4-(4-((5-chloro-4-((2-(dimethylphosphoryl)phenyl)amino)pyrimidin-2-yl)amino)-5-methoxy-2-(1-methyl-1H-pyrazol-4-yl)phenyl)piperazin-1-yl)methyl)piperidin-1-yl)-2-(2,6-dioxopiperidin-3-yl)isoindoline-1,3-dione] were, in that order, < 100 nM and 25 nM. The like results for `COc1cc(N2CCC(CN3CCN(c4ccc(C5CCC(=O)NC5=O)cc4)CC3)CC2)c(-c2cnn(C)c2)cc1Nc1ncc(Cl)c(Nc2ccccc2P(C)(C)=O)n1` (stereo not drawn) [Compound 135, 3-(4-(4-((1-(4-((5-chloro-4-((2-(dimethylphosphoryl)phenyl)amino)pyrimidin-2-yl)amino)-5-methoxy-2-(1-methyl-1H-pyrazol-4-yl)phenyl)piperidin-4-yl)methyl)piperazin-1-yl)phenyl)piperidine-2,6-dione] were, in that order, < 100 nM and 82 nM. Take `COc1cc(N2CCC(CN3CCN(c4ccc5c(c4)CN(C4CCC(=O)NC4=O)C5=O)CC3)CC2)c(-c2cnn(C)c2)cc1Nc1ncc(Cl)c(Nc2ccccc2P(C)(C)=O)n1` (stereo not drawn) [Compound 140, 3-(5-(4-((1-(4-((5-chloro-4-((2-(dimethylphosphoryl)phenyl)amino)pyrimidin-2-yl)amino)-5-methoxy-2-(1-methyl-1H-pyrazol-4-yl)phenyl)piperidin-4-yl)methyl)piperazin-1-yl)-1-oxoisoindolin-2-yl)piperidine-2,6-dione]: the IC50 runs as follows: (read-out: IC50 (class symbol)) < 100 nM; under setting [1], 32 nM.

As to `COc1cc(N2CCC(N3CCC(CN4CCCC5(CCN(c6ccc7c(c6)C(=O)N(C6CCC(=O)NC6=O)C7=O)CC5)C4)CC3)CC2)c(-c2cnn(C)c2)cc1Nc1ncc(Cl)c(Nc2ccc3nccnc3c2P(C)(C)=O)n1` (stereo not drawn) [Compound 17, 5-(2-((1′-(4-((5-chloro-4-((5-(dimethylphosphoryl)quinoxalin-6-yl)amino)pyrimidin-2-yl)amino)-5-methoxy-2-(1-methyl-1H-pyrazol-4-yl)phenyl)-[1,4′-bipiperidin]-4-yl)methyl)-2,9-diazaspiro[5.5]undecan-9-yl)-2-(2,6-dioxopiperidin-3-yl)isoindoline-1,3-dione], the IC50 (read-out: IC50 (class symbol)) is 100 to 500 nM.

As to `COc1cc(N2CCN(C[C@H]3CCN(c4ccc5c(c4)C(=O)N(C4CCC(=O)NC4=O)C5=O)C3)CC2)c(-c2cnn(C)c2)cc1Nc1ncc(Cl)c(Nc2ccccc2P(C)(C)=O)n1` (stereo partly drawn) [Compound 120, 5-((R)-3-((4-(4-((5-chloro-4-((2-(dimethylphosphoryl)phenyl)amino)pyrimidin-2-yl)amino)-5-methoxy-2-(1-methyl-1H-pyrazol-4-yl)phenyl)piperazin-1-yl)methyl)pyrrolidin-1-yl)-2-(2,6-dioxopiperidin-3-yl)isoindoline-1,3-dione], the IC50 is < 100 nM (read-out: IC50 (class symbol)) and 25 nM under setting [1].

`COc1cc(N2CCC(C3CCN(CC4CCN(c5ccc6c(c5)C(=O)N(C5CCC(=O)NC5=O)C6=O)CC4)CC3)CC2)c(-c2cnn(C)c2)cc1Nc1ncc(Cl)c(Nc2ccc3nccnc3c2P(C)(C)=O)n1` (stereo not drawn) [Trifluoroacetate of compound 13, 5-(4-((1′-(4-((5-chloro-4-((5-(dimethylphosphoryl)quinoxalin-6-yl)amino)pyrimidin-2-yl)amino)-5-methoxy-2-(1-methyl-1H-pyrazol-4-yl)phenyl)-[4,4′-bipiperidin]-1-yl)methyl)piperidin-1-yl)-2-(2,6-dioxopiperidin-3-yl)isoindoline-1,3-dione]: the 50% inhibitory concentration (IC50) runs as follows: (read-out: IC50 (class symbol)) < 100 nM; under setting [1], 37 nM. On to `COc1cc(N2CCC(N3CCC4(CCCN(c5ccc6c(c5)C(=O)N(C5CCC(=O)NC5=O)C6=O)C4)CC3)CC2)c(-c2cnn(C)c2)cc1Nc1ncc(Cl)c(Nc2ccc3nccnc3c2P(C)(C)=O)n1` (stereo not drawn) [Compound 11, 5-(9-(1-(4-((5-chloro-4-((5-(dimethylphosphoryl)quinoxalin-6-yl)amino)pyrimidin-2-yl)amino)-5-methoxy-2-(1-methyl-1H-pyrazol-4-yl)phenyl)piperidin-4-yl)-2,9-diazaspiro[5.5]undecan-2-yl)-2-(2,6-dioxopiperidin-3-yl)isoindoline-1,3-dione], for which the IC50 (read-out: IC50 (class symbol)) is < 100 nM and the IC50 under setting [1] was determined as 7 nM. As to `COc1cc(N2CCN(C3CCN(CC4CCN(c5ccc6c(c5)C(=O)N(C5CCC(=O)NC5=O)C6=O)CC4)CC3)CC2)c(C2CC2)cc1Nc1ncc(Cl)c(Nc2ccc3nccnc3c2P(C)(C)=O)n1` (stereo not drawn) [Compound 26, 5-(4-((4-(4-(4-((5-chloro-4-((5-(dimethylphosphoryl)quinoxalin-6-yl)amino)pyrimidin-2-yl)amino)-2-cyclopropyl-5-methoxyphenyl)piperazin-1-yl)piperidin-1-yl)methyl)piperidin-1-yl)-2-(2,6-dioxopiperidin-3-yl)isoindoline-1,3-dione], the concentration for half-maximal inhibition (IC50) (read-out: IC50 (class symbol)) lay within 100 to 500 nM. Take `COc1cc(N2CCC(CN3CCCC4(CCN(c5ccc6c(c5)C(=O)N(C5CCC(=O)NC5=O)C6=O)CC4)C3)CC2)c(-c2cnn(C)c2)cc1Nc1ncc(Br)c(Nc2ccc(-c3ccccc3)cc2P(C)(C)=O)n1` (stereo not drawn) [Compound 44, 5-(2-((1-(4-((5-bromo-4-((3-(dimethylphosphoryl)-[1,1′-biphenyl]-4-yl)amino)pyrimidin-2-yl)amino)-5-methoxy-2-(1-methyl-1H-pyrazol-4-yl)phenyl)piperidin-4-yl)methyl)-2,9-diazaspiro[5.5]undecan-9-yl)-2-(2,6-dioxopiperidin-3-yl)isoindoline-1,3-dione]: the half-maximal inhibitory concentration (IC50) (read-out: IC50 (class symbol)) was in the range of 100 to 500 nM and the IC50 under setting [1] turned out to be 301 nM. For `COc1cc(N2CCN(CC3CCN(c4ccc(C(=O)NC5CCC(=O)NC5=O)nc4)CC3)CC2)c(-c2cnn(C)c2)cc1Nc1ncc(Cl)c(Nc2ccc(-c3ccccc3)cc2P(C)(C)=O)n1` (stereo not drawn) [Compound 124, 5-(4-((4-(4-((5-chloro-4-((3-(dimethylphosphoryl)-[1,1′-biphenyl]-4-yl)amino)pyrimidin-2-yl)amino)-5-methoxy-2-(1-methyl-1H-pyrazol-4-yl)phenyl)piperazin-1-yl)methyl)piperidin-1-yl)-N-(2,6-dioxopiperidin-3-yl)picolinamide], the IC50 (read-out: IC50 (class symbol)) was < 100 nM and the IC50 under setting [1] worked out at 71 nM. On to `COc1cc(N2CCC(CN3CCN(c4ccc(NC5CCC(=O)NC5=O)cc4F)CC3)CC2)c(-c2cnn(C)c2)cc1Nc1ncc(Cl)c(Nc2ccc(C3CC3)cc2P(C)(C)=O)n1` (stereo not drawn) [Compound 158, 3-((4-(4-((1-(4-((5-chloro-4-((4-cyclopropyl-2-(dimethylphosphoryl)phenyl)amino)pyrimidin-2-yl)amino)-5-methoxy-2-(1-methyl-1H-pyrazol-4-yl)phenyl)piperidin-4-yl)methyl)piperazin-1-yl)-3-fluorophenyl)amino)piperidine-2,6-dione], for which the IC50 is, setting by setting: (read-out: IC50 (class symbol)) < 100 nM; under setting [1], 26 nM.

What is called IC50 is the point on the concentration scale where inhibition reaches its midpoint.

The record behind these values is patent US20240269298A1, “PHOSPHONYL DERIVATIVE, AND COMPOSITION AND PHARMACEUTICAL APPLICATION THEREOF” (XIZANG HAISCO PHARMACEUTICAL CO., LTD., priority 2021, published 2024).
